Where two headings read alike, the source gives them in different places.
Legend:
LLC-MK2 cells = experiment: Cytotoxicity to LLC-MK2 host cells (MTT); type: cell-based; conditions: Macaca mulatta, LLC-MK2; 120 h, MTT
Experimental: (§1) LLC-MK2 kidney fibroblasts (ATCC) and RAW 264.7 macrophages (ATCC) were cultivated in culture flasks in complete DMEM with 5% FBS at 37 °C in 5% CO2. The LLC-MK2 cell monolayer was detached by treatment with trypsin-EDTA 0.05% for 5 min at 37 °C. The RAW cell monolayer was detached mechanically. In both cases, the cells were centrifuged at 480× g for 6 min and resuspended in complete DMEM with 5% FBS, and the cell density was determined by counting with trypan-blue dye exclusion on Neubauer chambers before use.
(§2) LLC-MK2 cells were seeded in a 96-well microplate (1.0 × 10^4 cells per well) in complete DMEM with 5% FBS (120 µL per well). After incubation for 24 h at 37 °C in 5% CO2, the medium was renewed, and compounds were added at a range of concentrations in triplicate (50 μM or 100–1 μM). Untreated cells and cells treated with DMEM and 10% DMSO were used as negative and positive controls, respectively. Vehicle control containing DMEM and 0.3% DMSO was maintained for comparison. After incubation for 120 h at 37 °C in 5% CO2, the medium was renewed, and MTT salt solution in PBS was added (3.0 mM, 20 µL per well). After incubation for 2 h at 37 °C in 5% CO2, the supernatant was removed, and MTT formazan was dissolved in DMSO (150 µL per well). Absorbance was measured using a microplate reader at 570 nm.
(§3) The percent cell or parasite viability was calculated by the formula: % viability = [(A − P)/(N − P)] × 100, A = absorbance of specific well, P = positive control, N = negative control. Determination of half-maximal effective concentrations (EC50), calculated by logarithmic regression, and significance analysis (p < 0.05), using ANOVA and Dunnett’s test, by GraphPad Prism 7.0 software. The results are expressed as the mean and standard deviation (SD) of three independent experiments.

[1] = tested on: T. cruzi amastigotes (Tulahuen C2C4 LacZ strain); experiment: microbe, parasite or virus in culture; type: cell-based, Trypanosoma cruzi; conditions: Trypanosoma cruzi, TULAHUEN; for viability at 50 µM: LLC-MK2, 120 h, screening at 50 μM, 120 h, compared with untreated controls
Experimental: To a monolayer of 1.0 × 10^7 LLC-MK2 cells in a 150 cm^2 culture flask were added 5.0 × 10^7 trypomastigotes of T. cruzi expressing the […] (Tulahuen C2C4 LacZ) in complete DMEM with 2.5% FBS. The infection was allowed to occur for 24 h, the supernatant was removed, and the cell monolayer was washed with PBS. Complete DMEM with 2.5% FBS was renewed every 2 days up to the sixth day after infection. Trypomastigote forms were collected daily from the supernatant between days 7 and 12 after infection, enriched by differential centrifugation (1500× g for 10 min, 5580× g for 20 min), and resuspended in complete DMEM with 5% FBS. Parasite density was determined by counting the mobile trypomastigotes on Neubauer chambers before use.
. The medium was renewed, and trypomastigote forms of T. cruzi (Tulahuen C2C4 LacZ strain, 2.0 × 10^5 parasites per well) were added. After incubation for 24 h at 37 °C in 5% CO2, the cell monolayer was washed with PBS to remove noninternalized parasites. DMEM without phenol red and 5% FBS was added, and infected cells were treated with compounds at a range of concentrations in triplicate (50 μM or 100–1 μM). Untreated infected cells and noninfected LLC-MK2 cells were used as negative and positive controls, respectively. Vehicle control containing DMEM without phenol red and 0.3% DMSO was maintained for comparison. After incubation for 120 h at 37 °C in 5% CO2, a solution containing […] and 0.8% IGEPAL CA-630 in PBS (30 µL per well), followed by further incubation for 2 h at 37 °C in 5% CO2. Absorbance was measured using a microplate reader at 570 nm.
as §3

T. cruzi epimastigotes = tested on: T. cruzi epimastigotes; design: method as in PMID 19517898; conditions: T. cruzi epimastigotes at 50 μM; cited from earlier work
[2] = Cytotoxicity to LLC-MK2 host cells (MTT); type: cell-based; conditions: rhesus monkey, screening at 50 μM, 120 h
Experimental: as §1, §2, §3

Lucena-1 (K562/VCR) = experiment: cells; type: cell-based, human; conditions: for RR (relative resistance) Lucena-1: (EC50 MDR cells)/(EC50 parental cells), Lucena-1/K562; for EC50: Homo sapiens, Lucena 1, 72 h, read-out: EC50 Lucena-1
Experimental: (§4) The CML cell lines K562, Lucena-1 (K562/VCR), and FEPS (K562/DNR) were cultured in RPMI-1640 medium supplemented with 25 mM HEPES and 2 g L^−1 sodium bicarbonate adjusted to pH 7.4 with NaOH, 100 U penicillin and […] streptomycin. All media were supplemented with 10% FBS. Dr. Vivian M. Rumjanek (Instituto de Bioquímica Médica, UFRJ, Brazil) kindly donated Lucena-1 and FEPS cells. Briefly, K562 cells were exposed to increasing concentrations of the chemotherapeutic drugs vincristine sulfate (VCR) and daunorubicin hydrochloride (DNR) (both from Sigma-Aldrich), as described previously. Lucena-1 (K562/VCR) and FEPS (K562/DNR) cells were cultured in the presence of either 60 nM VCR or 500 nM DNR to maintain the MDR phenotypes. For subcultures, cells were harvested every three days followed by washing with cold FBS, and a final concentration of 2 × 10^4 cells mL^−1 was maintained at 37 °C in 5% CO2.
(§5) Cell viability was determined by the 3-(4,5-dimethylthiazol-2-yl)-2,5-diphenyltetrazolium (MTT) colorimetric assay. CML cells (2 × 10^4 cells·mL^−1) were incubated for 72 h at 37 °C, followed by treatment with compounds at a range of concentrations (100–1 μM). Negative controls were prepared with 0.5% DMSO. An MTT salt solution was added to each well to a final concentration of 0.5 g·L^−1, and plates were incubated at 37 °C in 5% CO2 for 3 h. After centrifugation, 200 μL DMSO was added to dissolve the dark-blue formazan crystals formed by MTT reduction. Absorbance was measured on a microplate reader at 570 nm, which is directly proportional to formazan contents and indicative of living cells.
as §3

K562 = experiment: MTT cytotoxicity to CML cell line K562; type: cell-based; conditions: Homo sapiens, 72 h
Experimental: as §4, §5, §3

[3] = tested on: L. amazonensis promastigotes; experiment: Anti-L. amazonensis promastigote assessment (MTT); type: cell-based; conditions: Leishmania amazonensis, 48 h, read-out: EC50 L. amazonensis promastigotes
Experimental: Promastigotes of L. amazonensis (MHOM/BR/75/Josefa) were cultured in Schneider’s insect medium (SIM) with 10% FBS. Parasites were harvested at the stationary growth phase for assessment against promastigotes and 24 h after cultures reached the stationary growth phase for infection assays. […]. Complete SIM media and amphotericin B (AmB) at 10 µM were used as negative and positive controls, respectively. A vehicle control containing SIM with 10% SFB media and 0.3% DMSO was maintained for comparison. The final volume of the experiment was 100 µL. After incubation for 48 h at 27 °C, MTT salt solution in PBS was added (3.0 mM, 20 µL per well). After incubation for 2 h at 27 °C, the MTT formazan was dissolved by adding 120 µL of solubilizing buffer (50% isopropanol, 40% acetate buffer pH 5.4, 10% Triton-X). Absorbance was measured using a microplate reader at 570 nm.
as §3

[4] = Cytotoxicity to BALB/c mouse total splenocytes (MTT); type: cell-based; conditions: male, total splenocytes (primary), 100 μM, 48 h, compared to the untreated control (Table S1)
Experimental: BALB/c mouse total splenocytes were harvested from male mice between 6–8 weeks old. After euthanasia, the spleens were removed and macerated in DMEM. After centrifugation, the cells were treated with hemolytic ACK buffer at 37 °C for 5 min. […] After incubation for 48 h at 37 °C in 5% CO2, cell viability was determined after the addition of 20 µL per well of a solution containing MTT salt (3.0 mM) and phenazine metasulphate (0.72 mM). After further incubation for 1 h at 37 °C, the medium was removed, and DMSO was added to dissolve the dark-blue formazan crystals formed by MTT reduction. Absorbance was measured on a microplate reader at 570 nm.
as §3

FEPS (K562/DNR) = experiment: MTT cytotoxicity to MDR CML cell line FEPS; type: cell-based, human; conditions: for RR (relative resistance) FEPS: (EC50 MDR cells)/(EC50 parental cells), FEPS/K562; for EC50: Homo sapiens, K562, 72 h, MTT
Experimental: as §4, §5, §3

RAW 264.7 cells = experiment: Cytotoxicity to RAW 264.7 cells (MTT); type: cell-based, murine; conditions: Mus musculus, RAW264.7, 48 h, read-out: EC50 RAW
Experimental: as §1
RAW 264.7 cells were seeded in a 96-well microplate (2.0 × 10^4 cells per well) in complete DMEM with 5% FBS (120 µL per well). After incubation for 24 h at 37 °C in 5% CO2, the medium was renewed, and compounds were added at a range of concentrations in triplicate (100–1 μM). Untreated cells and cells treated with DMEM and 10% DMSO were used as negative and positive controls, respectively. Vehicle control containing DMEM and 0.3% DMSO was maintained for comparison. After incubation for 48 h at 37 °C in 5% CO2, the medium was renewed, and an MTT solution in PBS was added (3.0 mM, 20 µL per well). After incubation for 2 h at 37 °C in 5% CO2, the supernatant was removed, and MTT formazan was dissolved in DMSO (150 µL per well). Absorbance was measured using a microplate reader at 570 nm.
as §3

[5] = tested on: L. amazonensis amastigotes; experiment: Anti-L. amazonensis amastigote assessment in RAW 264.7 macrophages; type: cell-based, Leishmania amazonensis
Experimental: RAW 264.7 cells were seeded in a 96-well microplate (2.0 × 10^4 cells per well) in complete DMEM with 5% FBS and incubated for 3 h at 37 °C in 5% CO2 for cell adhesion. The medium was renewed, and L. amazonensis promastigotes (3.0 × 10^5 parasites per well) were added. After 24 h of incubation at 37 °C in 5% CO2, the cell monolayer was washed with PBS to remove noninternalized parasites, the medium was renewed, and compounds were added at a range of concentrations in triplicate (100–1 μM). Untreated infected cells and noninfected RAW 264.7 cells were used as negative and positive controls, respectively. Vehicle control containing DMEM and 0.3% DMSO was maintained for comparison. After incubation for 48 h at 37 °C in 5% CO2, the medium was removed, and a solution containing 0.02% SDS in PBS (20 µL per well) was added. Macrophage lysis and amastigote release were accompanied under an inverted microscope for 10–15 min. SIM with 12.5% SFB (80 µL per well) was added, parasites were allowed to differentiate into promastigotes for 48 h at 27 °C, and an MTT salt solution in PBS was added (3.0 mM, 20 µL per well). After incubation for 2 h at 27 °C, the MTT formazan was dissolved by adding 120 µL of solubilizing buffer (50% isopropanol, 40% acetate buffer pH 5.4, 10% Triton X). Absorbance was measured using a microplate reader at 570 nm.
as §3

[6] = LLC-MK2 cells (kidney fibroblasts)

Structure (SMILES)	viability at 50 µM [1]	RR (relative resistance) Lucena-1 (Lucena-1 (K562/VCR))	EC50 (Lucena-1 (K562/VCR))	EC50 (K562)	EC50 ([3]; MTT)	viability at 48 h, 100 µM [4]	melting point	RR (relative resistance) FEPS (FEPS (K562/DNR))	EC50 (FEPS (K562/DNR))	viability at 120 h, 50 µM [2, 6]	further results
O=C(Cn1ccnc1[N+](=O)[O-])NCc1ccccc1 [Benznidazole, reference compound]	23.2 ± 1.4%	–	–	–	–	–	–	–	–	–	EC50 (LLC-MK2 cells): > 100 µM; EC50 ([1]; in LLC-MK2, 120 h, read-out: EC50 T. cruzi intracellular amastigotes): 1.5 ± 0.2 µM
COc1ccc(OC)c(/C=C/C(=O)Nc2nc3ccccc3s2)c1 [Compound 1]	–	–	–	–	–	–	–	–	–	–	apoptosis (T. cruzi epimastigotes): 40.2%; necrosis (T. cruzi epimastigotes): 17.9%; parasite death (T. cruzi epimastigotes): 58.1%
C(=C\c1cccs1)/c1nc(-c2ccccc2)no1 [Compound 17, (E)-3-phenyl-5-[2-thiophen-2-yl-vinyl]-1,2,4-oxadiazole]	69.6 ± 6.3%	<0.72	71.9 ± 0.6 µM	> 100 µM	77.6 ± 6.3 µM	99 ± 8.4%	93 to 95 °C	<0.56	55.7 ± 17.2 µM	–	viability at 120 h, 50 µM [2]: 86.2 ± 7.1%
COc1cc(-c2noc(/C=C/c3ccccc3)n2)cc(OC)c1OC [Compound 21, (E)-3-(3,4,5-trimethoxyphenyl)-5-[2-phenylvinyl]-1,2,4-oxadiazole]	77.3 ± 2%	<0.69	68.6 ± 10.1 µM	> 100 µM	> 100 µM	76.8 ± 6.6%	138 to 140 °C	<0.28	27.7 ± 5.2 µM	88.5 ± 4.7%	–
C(=C\c1nc(-c2ccccc2)no1)/c1ccco1 [Compound 16, (E)-3-phenyl-5-[2-fur-2-yl-vinyl]-1,2,4-oxadiazole]	83 ± 3.7%	1.23	65 ± 9.6 µM	52.8 ± 17.7 µM	47.1 ± 3.7 µM	53.5 ± 5.2%	83 to 85 °C	1.03	54.7 ± 1.7 µM	89.2 ± 1.4%	–
C[C@@H]1[C@H](O)[C@@H](C)/C=C/C=C/C=C/C=C/C=C/C=C/C=C/[C@H](O[C@@H]2O[C@H](C)[C@@H](O)[C@H](N)[C@@H]2O)C[C@@H]2O[C@](O)(C[C@@H](O)C[C@@H](O)[C@H](O)CC[C@@H](O)C[C@@H](O)CC(=O)O[C@H]1C)C[C@H](O)[C@H]2C(=O)O [Amphotericin B, reference compound]	–	–	–	–	–	–	–	–	–	–	EC50 (RAW 264.7 cells): 9.8 ± 3.3 µM; EC50 [3]: 0.094 ± 0.001 µM; EC50 ([5]; Leishmania amazonensis, RAW264.7, 48 h, read-out: EC50 L. amazonensis intracellular amastigotes): 0.151 ± 0.022 µM; S.I. (selectivity index) ([5]; host cell/parasite EC50 ratio, RAW/L. amazonensis): 65.2

Source: PMC9787607, “A Novel Protocol for the Synthesis of 1,2,4-Oxadiazoles Active against Trypanosomatids and Drug-Resistant Leukemia Cell Lines” (Tropical Medicine and Infectious Disease, 2022)
